# Earlier results in publication PMC9762682, “Tocotrienols: Exciting Biological and Pharmacological Properties of Tocotrienols and Naturally Occurring Compounds, Part II” (Annals of clinical case reports, 2022).
# Where two headings read alike, the source gives them in different places. Marks after values point to notes of the source that are not given here.
# How the values were obtained:
# [1] = test system: Pancreas cancer cells; set-up: method as in PMID 29606130
# [2] = test system: cytokines, adiponectin, TGF-β1, leptin; set-up: method as in ref 14 = [14]; PMID 27493840; doi:10.4172/2155-9880.1000434; 14. Qureshi AA , Khan DA , Saleem S , Silswal N , Trias AM , Tan B , Pharmacokinetics and bioavailability of Annatto δ-tocotrienol in healthy fed subjects . J Clin Exp Cardiol . 2015; 6 : 11 . 10.417; details: δ-tocotrienol treatment, pharmacokinetic study
# [3] = test system: gene expression of TNF-α, IL-2, IL-4, IL-6, IL-8, IL-10; set-up: method as in earlier work; details: 250 mg/d + AHA Step-1 diet; baseline = 100
# [4] = set-up: method as in ref 16 = [16]; PMID 27493840; doi:10.4172/2155-9880.1000434; 16. Qureshi AA , Khan DA , Silswal N , Saleem S , Qureshi N . Evaluation of pharmacokinetics and bioavailability of higher doses of δ-tocotrienol in healthy fed humans . J Clin Exp Cardiol . 2016; 7
# [5] = test system: plasma total mRNAs gene expression; set-up: method as in PMID 30031388
# [6] = plasma tocol after single dose 750 mg δ-tocotrienol
# [7] = plasma tocol after single dose 750 mg δ-tocotrienol, listed as δ-tocotrienol
# [8] = plasma tocol after single dose 1000 mg δ-tocotrienol
# [9] = plasma tocol after single dose 1000 mg δ-tocotrienol, listed as δ-tocotrienol
# [10] = hepatitis C patients, plasma total mRNAs, pre-dose vs post-dose
structure (smiles),measurement,setting,value
CC(C)=CCC/C(C)=C/CC/C(C)=C/CC[C@]1(C)CCc2cc(O)cc(C)c2O1 [δ-Tocotrienol],IC50,[1],10 µM
same,percentage of control at IC50 dose,[1],36%
same,effective dose,[1]; 48 h,20 µM
same,percentage of control at effective dose,[1]; 48 h,5%
same,"adiponectin, TGF-β1, and leptin",[2],up-regulation
same,eight cytokines,[2],down-regulation
same,Gene Expression IL-2,[3],91.5 ± 3.54
same,Gene Expression IL-4,[3],77.5 ± 2.12
same,Gene Expression IL-6,[3],73.5 ± 0.71
same,Gene Expression IL-8,[3],92.0 ± 2.83
same,Gene Expression IL-10,[3],89.0 ± 1.41
same,Gene Expression TNF-α,[3],"84.5 ± 0.71^a, ^**"
same,plasma tocol level,"[4]; 0 Hr., single dose 750 mg δ-tocotrienol",132 ± 12 ng/mL
same,plasma tocol level,"[4]; 0 Hr., single dose 1000 mg δ-tocotrienol",360 ± 20 ng/mL
same,Time of clearance (Cl-T),[4]; 750 mg/d,0.086 h⁻¹
same,Time of clearance (Cl-T),[4]; 1000 mg/d,0.078 h⁻¹
same,plasma tocol level,"[4]; 1 hr., single dose 750 mg δ-tocotrienol",310 ± 28 ng/mL
same,plasma tocol level,"[4]; 1 hr., single dose 1000 mg δ-tocotrienol",993 ± 33 ng/mL
same,plasma tocol level,"[4]; 2 hr., single dose 750 mg δ-tocotrienol",877 ± 24 ng/mL
same,plasma tocol level,"[4]; 2 hr., single dose 1000 mg δ-tocotrienol",1593 ± 44 ng/mL
same,plasma tocol level,"[4]; 4 hr., single dose 750 mg δ-tocotrienol",1444 ± 53 ng/mL
same,plasma tocol level,"[4]; 4 hr., single dose 1000 mg δ-tocotrienol",884 ± 45 ng/mL
same,plasma tocol level,"[4]; 6 hr., single dose 750 mg δ-tocotrienol",759 ± 30 ng/mL
same,plasma tocol level,"[4]; 6 hr., single dose 1000 mg δ-tocotrienol",562 ± 47 ng/mL
same,plasma tocol level,"[4]; 8 hr., single dose 750 mg δ-tocotrienol",523 ± 13 ng/mL
same,Area Under the Curve-t0 - t8 (AUC0-8),[4]; [6],6620.87 ± 49.67^a ^* ng/ml
same,Area Under the Curve-t0 - ∞ (AUC0-∞),[4]; [6],8687.69 ± 201.01^a ^* ng/ml
same,Elimination of Half-life time (t1/2),[4]; [6],2.74 ± 0.13^a h
same,Elimination rate constant (ke),[4]; [6],0.253 ± 0.167^a h-1
same,Peak Plasma Concentration (Cmax),[4]; [6],1444.23 ± 53.07^a ng/ml
same,Time of clearance (Cl-T),[4]; [6],0.086 ± 0.002^a I/h
same,Time to achieve plasma peak (Tmax),[4]; [6],4.00^a h
same,Area Under the Curve-t0 - t8 (AUC0-8),[4]; [7],6620 ng·h/mL
same,Area Under the Curve-t0 - ∞ (AUC0-∞),[4]; [7],8690 ng·h/mL
same,Elimination rate constant (ke),[4]; [7],0.25 h⁻¹
same,Peak Plasma Concentration (Cmax),[4]; [7],1444 ng/mL
same,Area Under the Curve-t0 - t8 (AUC0-8),[4]; [8],7450.10 ± 89.01^a ^* ng/ml
same,Area Under the Curve-t0 - ∞ (AUC0-∞),[4]; [8],9633.18 ± 382.98^a ^* ng/ml
same,Elimination of Half-life time (t1/2),[4]; [8],2.68 ± 0.29^a h
same,Elimination rate constant (ke),[4]; [8],0.260 ± 0.143^a h-1
same,Peak Plasma Concentration (Cmax),[4]; [8],1591.89 ± 43.97^a ng/ml
same,Time of clearance (Cl-T),[4]; [8],0.078 ± 0.003^a I/h
same,Time to achieve plasma peak (Tmax),[4]; [8],4.00^a h
same,Area Under the Curve-t0 - t8 (AUC0-8),[4]; [9],7450 ng·h/mL
same,Area Under the Curve-t0 - ∞ (AUC0-∞),[4]; [9],9630 ng·h/mL
same,Peak Plasma Concentration (Cmax),[4]; [9],1592 ng/mL
same,Total tocols (sum of 0-8 h),[4]; single dose 750 mg δ-tocotrienol,4045 ng/mL
same,side effects in hepatitis C patients,[5]; chronic hepatitis C patients,without any side-effect
same,Expr. Fold Change: AKR1D1,[5]; [10],14.056
same,Expr. Fold Change: APOBEC3A,[5]; [10],−8.163
same,Expr. Fold Change: ATF4,[5]; [10],−9.515
same,Expr. Fold Change: ATG3,[5]; [10],−8.376
same,Expr. Fold Change: ATP1A1,[5]; [10],−8.014
same,Expr. Fold Change: CERS3,[5]; [10],19.082
same,Expr. Fold Change: COX14,[5]; [10],−9.447
same,Expr. Fold Change: CREB1,[5]; [10],−8.452
same,Expr. Fold Change: CXCR2,[5]; [10],−8.208
same,Expr. Fold Change: CYB5R4,[5]; [10],−8.367
same,Expr. Fold Change: CYP2R1,[5]; [10],−8.682
same,Expr. Fold Change: FRS2,[5]; [10],−9.962
same,Expr. Fold Change: GPR65,[5]; [10],−9.054
same,Expr. Fold Change: GPS2,[5]; [10],−9.56
same,Expr. Fold Change: GTPBP8,[5]; [10],−10.19
same,Expr. Fold Change: GYS1,[5]; [10],−9.027
same,Expr. Fold Change: HBG1,[5]; [10],17.945
same,Expr. Fold Change: HBG2,[5]; [10],11.413
same,Expr. Fold Change: HHIPL2,[5]; [10],28.710
same,Expr. Fold Change: HIST1H2AD,[5]; [10],1804955.068
same,Expr. Fold Change: HSP90AB1,[5]; [10],−8.049
same,Expr. Fold Change: HSPA14,[5]; [10],−10.978
same,Expr. Fold Change: ID2,[5]; [10],−14.133
same,Expr. Fold Change: IFNGR2,[5]; [10],−13.844
same,Expr. Fold Change: IGF2R,[5]; [10],−8.68
same,Expr. Fold Change: IGSF6,[5]; [10],−8.712
same,Expr. Fold Change: IL2RG,[5]; [10],−16.787
same,Expr. Fold Change: IL16,[5]; [10],−8.239
same,Expr. Fold Change: IL27RA,[5]; [10],−12.004
same,Expr. Fold Change: ILF2,[5]; [10],−9.105
same,Expr. Fold Change: IRF2,[5]; [10],−22.655
same,Expr. Fold Change: KLRC4-KLRK1/KLRK1,[5]; [10],−1565687.642
same,Expr. Fold Change: MKX,[5]; [10],9.573
same,Expr. Fold Change: MT-TQ,[5]; [10],14.252
same,Expr. Fold Change: NDUFA11,[5]; [10],−8.686
same,Expr. Fold Change: NDUFB1,[5]; [10],−8.566
same,Expr. Fold Change: NDUFB9,[5]; [10],−8.354
same,Expr. Fold Change: NFIL3,[5]; [10],−9.568
same,Expr. Fold Change: OSBPL11,[5]; [10],−9.201
same,Expr. Fold Change: P4HA3,[5]; [10],8.686
same,Expr. Fold Change: PDE3B,[5]; [10],−8.568
same,Expr. Fold Change: PECAM1,[5]; [10],−9.552
same,Expr. Fold Change: PIAS1,[5]; [10],−9.326
same,Expr. Fold Change: PIBF1,[5]; [10],−9.876
same,Expr. Fold Change: PRPF18,[5]; [10],−8.777
same,Expr. Fold Change: PSMA5,[5]; [10],−9.31
same,Expr. Fold Change: PSMB4,[5]; [10],−10.119
same,Expr. Fold Change: PSMB8,[5]; [10],−9.709
same,Expr. Fold Change: PSMC3,[5]; [10],−8.346
same,Expr. Fold Change: PTGS2,[5]; [10],−25.841
same,Expr. Fold Change: RAP2C,[5]; [10],−9.792
same,Expr. Fold Change: RPP38,[5]; [10],24.946
same,Expr. Fold Change: RPS26,[5]; [10],−9.456
same,Expr. Fold Change: SCP2,[5]; [10],−13.672
same,Expr. Fold Change: SERP1,[5]; [10],−8.872
same,Expr. Fold Change: SFPQ,[5]; [10],−9.469
same,Expr. Fold Change: TLR8,[5]; [10],−11.975
same,Expr. Fold Change: TNFAIP8,[5]; [10],−10.974
same,Expr. Fold Change: TNFRSF1B,[5]; [10],−8.746
same,Expr. Fold Change: TRAF7,[5]; [10],−9.341
same,Expr. Fold Change: TSPAN15,[5]; [10],11.523
same,Expr. Fold Change: TUSC2,[5]; [10],−15.922
same,Expr. Fold Change: UBA52,[5]; [10],−10.176
same,Expr. Fold Change: UBE2J1,[5]; [10],−8.874
same,Expr. Fold Change: UBE4A,[5]; [10],−10.189
same,Expr. Fold Change: UBP1,[5]; [10],−9.718
same,Expr. Fold Change: USP15,[5]; [10],−10.16
same,Expr. Fold Change: USP19,[5]; [10],−10.713
same,Expr. Fold Change: USP25,[5]; [10],−9.911
same,Expr. Fold Change: VEGFA,[5]; [10],−8.933
same,Expr. Fold Change: mir-140,[5]; [10],−5668.259
same,Expr. Fold Change: mir-877,[5]; [10],−4497.07
same,Expr. Fold Change: mir-1250,[5]; [10],−4755.79
same,"expression of pro-inflammatory cytokines (TNF-α, VCAM1, proteasome subunits)",[5]; plasma total mRNAs after δ-tocotrienol feeding to hepatitis C patients,significant inhibition
same,expression of ICAM1 and IFN-γ,"[5]; plasma total mRNAs after δ-tocotrienol feeding to hepatitis C patients, post-treatment",induction
